# Inconclusive results and toxic doses are left out.
# Test system: L1210 leukemia ip in BDF1 mice, survival T/C
# Experiment: NCI In Vivo Anticancer Drug Screen. Data for tumor model L1210 Leukemia (intraperitoneal) in B6D2F1 (BDF1) mice
# Settings: endpoint: mean survival time, higher = longer survival
# How it was run: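 Tumor cells were implanted, animals were treated, and survival was followed. The result divides the treated measurement by the vehicle-control measurement.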
structure (smiles),measurement,setting,value
COc1cc(OC)c(/C=C/c2c3ccccc3cc[n+]2C)c(OC)c1,T/C,"dose: 0.78 mg/kg/injection, schedule: Q01DX009 (ip), vehicle: saline with Tween-80",100 % of control
same,T/C,"dose: 1.56 mg/kg/injection, schedule: Q01DX009 (ip), vehicle: saline with Tween-80",97 % of control
CS(=O)(=O)OCOS(C)(=O)=O,T/C,"dose: 12.5 mg/kg/injection, schedule: Q01DX009 (ip), vehicle: Klucel (hydroxypropylcellulose) (HPC)",104 % of control
same,T/C,"dose: 12.5 mg/kg/injection, schedule: Q01DX009 (ip), vehicle: saline",96 % of control
same,T/C,"dose: 25.0 mg/kg/injection, schedule: Q01DX009 (ip), vehicle: Klucel (hydroxypropylcellulose) (HPC)",101 % of control
same,T/C,"dose: 25.0 mg/kg/injection, schedule: Q01DX009 (ip), vehicle: saline",100 % of control
same,T/C,"dose: 50.0 mg/kg/injection, schedule: Q01DX009 (ip), vehicle: Klucel (hydroxypropylcellulose) (HPC)",120 % of control
same,T/C,"dose: 50.0 mg/kg/injection, schedule: Q04DX002 (ip), vehicle: saline",119 % of control
OCC1(CO)COC2(CCCC2)N1,T/C,"dose: 50.0 mg/kg/injection, schedule: Q01DX001 (ip), vehicle: saline",101 % of control
same,T/C,"dose: 100.0 mg/kg/injection, schedule: Q01DX001 (ip), vehicle: saline",97 % of control
same,T/C,"dose: 200.0 mg/kg/injection, schedule: Q01DX001 (ip), vehicle: saline",95 % of control
same,T/C,"dose: 400.0 mg/kg/injection, schedule: Q01DX001 (ip), vehicle: saline",103 % of control
[O]=[Sn]([c]1ccccc1)[c]1ccccc1,T/C,"dose: 64.0 mg/kg/injection, schedule: Q04DX002 (ip), vehicle: saline with Tween-80",313 % of control
CCOP(=S)(OCC)OP(=S)(OCC)OCC,T/C,"dose: 1.0 mg/kg/injection, schedule: Q01DX009 (ip), vehicle: other",108 % of control
same,T/C,"dose: 1.0 mg/kg/injection, schedule: Q04DX003 (ip), vehicle: other",100 % of control
same,T/C,"dose: 2.0 mg/kg/injection, schedule: Q01DX009 (ip), vehicle: other",90 % of control
same,T/C,"dose: 2.0 mg/kg/injection, schedule: Q04DX003 (ip), vehicle: other",97 % of control
same,T/C,"dose: 4.0 mg/kg/injection, schedule: Q04DX003 (ip), vehicle: other",100 % of control
COC(=O)C(C)NC(=O)C(C)NC(=O)c1cnc2ccccc2n1 (centres undefined),T/C,"dose: 100.0 mg/kg/injection, schedule: Q01DX001 (ip), vehicle: carboxymethylcellulose (CMC)",89 % of control
same,T/C,"dose: 200.0 mg/kg/injection, schedule: Q01DX001 (ip), vehicle: carboxymethylcellulose (CMC)",93 % of control
Cc1cc(C)c(NC(=O)Cc2ccccc2)cc1C,T/C,"dose: 100.0 mg/kg/injection, schedule: Q04DX002 (ip), vehicle: Klucel (hydroxypropylcellulose) (HPC)",96 % of control
same,T/C,"dose: 200.0 mg/kg/injection, schedule: Q04DX002 (ip), vehicle: Klucel (hydroxypropylcellulose) (HPC)",96 % of control
same,T/C,"dose: 400.0 mg/kg/injection, schedule: Q04DX002 (ip), vehicle: Klucel (hydroxypropylcellulose) (HPC)",89 % of control
Cn1ccc(CCl)n1,T/C,"dose: 100.0 mg/kg/injection, schedule: Q04DX003 (ip), vehicle: saline",95 % of control
same,T/C,"dose: 200.0 mg/kg/injection, schedule: Q04DX003 (ip), vehicle: saline",97 % of control
O=C(O)c1ccc(Br)c2ccccc12,T/C,"dose: 75.0 mg/kg/injection, schedule: Q01DX001 (ip), vehicle: carboxymethylcellulose (CMC)",95 % of control
same,T/C,"dose: 150.0 mg/kg/injection, schedule: Q01DX001 (ip), vehicle: carboxymethylcellulose (CMC)",98 % of control
CN1Cc2ccccc2-c2ccccc2C1,T/C,"dose: 75.0 mg/kg/injection, schedule: Q01DX001 (ip), vehicle: saline",101 % of control
O=C(Nc1cccc(C(F)(F)F)c1)N(C1CCCCC1)C1CCCCC1,T/C,"dose: 100.0 mg/kg/injection, schedule: Q01DX009 (ip), vehicle: Klucel (hydroxypropylcellulose) (HPC)",92 % of control
same,T/C,"dose: 200.0 mg/kg/injection, schedule: Q01DX009 (ip), vehicle: Klucel (hydroxypropylcellulose) (HPC)",87 % of control
same,T/C,"dose: 400.0 mg/kg/injection, schedule: Q01DX009 (ip), vehicle: Klucel (hydroxypropylcellulose) (HPC)",87 % of control
N\C([S-])=N/N=C\C(=N/N=C(\N)[S-])C(O)C(O)C(O)CO.[Rh+2] (centres undefined),T/C,"dose: 100.0 mg/kg/injection, schedule: Q04DX003 (ip), vehicle: other",106 % of control
same,T/C,"dose: 200.0 mg/kg/injection, schedule: Q04DX003 (ip), vehicle: other",93 % of control
same,T/C,"dose: 400.0 mg/kg/injection, schedule: Q04DX003 (ip), vehicle: other",98 % of control

# — PubChem BioAssay AID248 (DTP/NCI, 2004)
